The results in this text go back to ChEMBL document CHEMBL1144260, “Hybridization dependent cleavage of internally modified disulfide-peptide nucleic acids” (Bioorg Med Chem Lett, 2005).

Structures are written as SMILES.

Holding throughout (type): functional
Assay [1] has as its system Nucleic Acid. Nature of the assay: Percentage of cleavage in single stranded peptide nucleic acid was measured after treating with compound for 2 min; selectivity factor>/=1; PNA:DNA=5a:6b.
Assay [2] has as its system Nucleic Acid. As to the kind of experiment: Percentage of cleavage in single stranded peptide nucleic acid was measured after treating with compound for 20 min; selectivity factor=22.2; PNA:DNA=5c:8b.
For assay [3], the system named is Nucleic Acid. Nature of the assay: Percentage of cleavage in single stranded peptide nucleic acid was measured after treating with compound for 20 min; selectivity factor=7.4; PNA:DNA=5b:7a.
In assay [4] the test system is Nucleic Acid. Nature of the assay: Percentage of cleavage in single stranded peptide nucleic acid was measured after treating with compound for 20 min; selectivity factor=57.1; PNA:DNA=5c:8.
The subject of assay [5] is Nucleic Acid. As to the kind of experiment: Percentage of cleavage in single stranded peptide nucleic acid (PNA) DNA duplex was measured after treating with compound for 20 min; selectivity factor=2.9; PNA:DNA=5b:7b.
The subject of assay [6] is Nucleic Acid. Nature of the assay: Percentage of cleavage in single stranded peptide nucleic acid (PNA) DNA duplex was measured after treating with compound for 20 min; selectivity factor=25.7; PNA:DNA=5c:8a.
Assay [7] has as its system Nucleic Acid. Nature of the assay: Percentage of cleavage in single stranded peptide nucleic acid (PNA) DNA duplex was measured after treating with compound for 20 min; selectivity factor=17.3; PNA:DNA=5b:7.
Assay [8] deals with Nucleic Acid. Nature of the assay: Percentage of cleavage in single stranded peptide nucleic acid (PNA) DNA duplex was measured after treating with compound for 20 min; selectivity factor=7.4; PNA:DNA=5b:7a.
Assay [9] deals with Nucleic Acid. As to the kind of experiment: Percentage of cleavage in single stranded peptide nucleic acid (PNA) DNA duplex was measured after treating with compound for 20 min; selectivity factor=22.2; PNA:DNA=5c:8b.
Assay [10] deals with Nucleic Acid. Nature of the assay: Percentage of cleavage in single stranded peptide nucleic acid was measured after treating with compound for 20 min; selectivity factor=17.3; PNA:DNA=5b:7.
The test system of assay [11] is Nucleic Acid. Nature of the assay: Percentage of cleavage in single stranded peptide nucleic acid was measured after treating with compound for 2 min; selectivity factor>1; PNA:DNA=5a:6.
The subject of assay [12] is Nucleic Acid. Nature of the assay: Percentage of cleavage in single stranded peptide nucleic acid (PNA) DNA duplex was measured after treating with compound for 20 min; selectivity factor=57.1; PNA:DNA=5c:8.
Assay [13] has as its system Nucleic Acid. Nature of the assay: Percentage of cleavage in single stranded peptide nucleic acid was measured after treating with compound for 20 min; selectivity factor=2.9; PNA:DNA=5b:7b.
In assay [14] the test system is Nucleic Acid. Nature of the assay: Percentage of cleavage in single stranded peptide nucleic acid was measured after treating with compound for 20 min; selectivity factor=25.7; PNA:DNA=5c:8a.
Assay [15] relates to Nucleic Acid. Nature of the assay: Percentage of cleavage in single stranded peptide nucleic acid (PNA) DNA duplex was measured after treating with compound for 2 min; selectivity factor>/=1; PNA:DNA=5a:6b.
Assay [16] deals with Nucleic Acid. As to the kind of experiment: Percentage of cleavage in single stranded peptide nucleic acid (PNA) DNA duplex was measured after treating with compound for 2 min; selectivity factor>1; PNA:DNA= 5a:6.
The test system of assay [17] is Nucleic Acid. As to the kind of experiment: Percentage of cleavage in single stranded peptide nucleic acid was measured after treating with compound for 30 min; selectivity factor=1; PNA:DNA=5a:6.
In assay [18] the test system is Nucleic Acid. Nature of the assay: Percentage of cleavage in single stranded peptide nucleic acid (PNA) DNA duplex was measured after treating with compound for 30 min; selectivity factor=1; PNA:DNA=5a:6.
Assay [19] relates to Nucleic Acid. As to the kind of experiment: Percentage of cleavage in single stranded peptide nucleic acid was measured after treating with compound for 30 min; selectivity factor=1.6; PNA:DNA=5a:6.
For assay [20], the system named is Nucleic Acid. As to the kind of experiment: Percentage of cleavage in single stranded peptide nucleic acid (PNA) DNA duplex was measured after treating with compound for 30 min; selectivity factor=1.6; PNA:DNA=5a:6.
In assay [21] the test system is Nucleic Acid. As to the kind of experiment: Percentage of cleavage in single stranded peptide nucleic acid was measured after treating with compound for 2 min; selectivity factor=1.5; PNA:DNA=5a:6.
Assay [22] deals with Nucleic Acid. As to the kind of experiment: Percentage of cleavage in single stranded peptide nucleic acid (PNA) DNA duplex was measured after treating with compound for 2 min; selectivity factor=1.5; PNA:DNA=5a:6.
The test system of assay [23] is Nucleic Acid. Nature of the assay: Percentage of cleavage in single stranded peptide nucleic acid (PNA) DNA duplex was measured after treating with compound for 300 min; selectivity factor=2.8; PNA:DNA=5c:8a.
Assay [24] deals with Nucleic Acid. Nature of the assay: Percentage of cleavage in single stranded peptide nucleic acid was measured after treating with compound for 300 min; selectivity factor=10.1; PNA:DNA=5b:7.
The subject of assay [25] is Nucleic Acid. Nature of the assay: Percentage of cleavage in single stranded peptide nucleic acid was measured after treating with compound for 300 min; selectivity factor=4.6; PNA:DNA=5a:6 (with NaCl 0.5 M).
Assay [26] deals with Nucleic Acid. As to the kind of experiment: Percentage of cleavage in single stranded peptide nucleic acid (PNA)-DNA duplex was measured after treating with compound for 300 min; selectivity factor=10.1; PNA:DNA=5b:7.
In assay [27] the test system is Nucleic Acid. Nature of the assay: Percentage of cleavage in single stranded peptide nucleic acid was measured after treating with compound for 300 min; selectivity factor=23.8; PNA:DNA=5a:6.
Assay [28] relates to Nucleic Acid. Nature of the assay: Percentage of cleavage in single stranded peptide nucleic acid (PNA) DNA duplex was measured after treating with compound for 300 min; selectivity factor=4.6; PNA:DNA=5a:6 (with NaCl 0.5 M).
The subject of assay [29] is Nucleic Acid. Nature of the assay: Percentage of cleavage in single stranded peptide nucleic acid was measured after treating with compound for 300 min; selectivity factor=2.8; PNA:DNA=5c:8a.
Assay [30] concerns Nucleic Acid. Nature of the assay: Percentage of cleavage in single stranded peptide nucleic acid (PNA) DNA duplex was measured after treating with compound for 300 min; selectivity factor=23.8; PNA:DNA=5a:6.
Assay [31] relates to Nucleic Acid. Nature of the assay: Percentage of cleavage in single stranded peptide nucleic acid was measured after treating with compound for 10 min; selectivity factor=0.6; PNA:DNA=5a:6.
The test system of assay [32] is Nucleic Acid. Nature of the assay: Percentage of cleavage in single stranded peptide nucleic acid (PNA) DNA duplex was measured after treating with compound for 10 min; selectivity factor=0.6; PNA:DNA=5a:6.
Assay [33] relates to Nucleic Acid. As to the kind of experiment: Percentage of cleavage in single stranded peptide nucleic acid was measured after treating with compound for 30 min; selectivity factor=10.2; PNA:DNA=5a:6.
For assay [34], the system named is Nucleic Acid. As to the kind of experiment: Percentage of cleavage in single stranded peptide nucleic acid (PNA) DNA duplex was measured after treating with compound for 30 min; selectivity factor=10.2; PNA:DNA=5a:6.
The subject of assay [35] is Nucleic Acid. As to the kind of experiment: Percentage of cleavage in single stranded peptide nucleic acid (PNA) DNA duplex was measured after treating with compound for 0.5 min; selectivity factor=0.9; PNA:DNA=5a:6.
For assay [36], the system named is Nucleic Acid. As to the kind of experiment: Percentage of cleavage in single stranded peptide nucleic acid was measured after treating with compound for 0.5 min; selectivity factor=0.9; PNA:DNA=5a:6.
The test system of assay [37] is Nucleic Acid. Nature of the assay: Percentage of cleavage in single stranded peptide nucleic acid was measured after treating with compound for 30 min; selectivity factor=0.7; PNA:DNA=5a:6.
In assay [38] the test system is Nucleic Acid. Nature of the assay: Percentage of cleavage in single stranded peptide nucleic acid (PNA) DNA duplex was measured after treating with compound for 30 min; selectivity factor=0.7; PNA:DNA=5a:6.

For the compound `O=C(O)CCP(CCC(=O)O)CCC(=O)O`, the Cleavage in the assay on Nucleic Acid [1] worked out at 100%; with Nucleic Acid [2] it was 97.6%; in the assay on Nucleic Acid [3] it was 31.2%; in the assay on Nucleic Acid [4], 97.6%; in the assay on Nucleic Acid [5], 10.8%; in the assay on Nucleic Acid [6], 3.8%. The Cleavage with Nucleic Acid [7] came out at 1.8%; with Nucleic Acid [8], 4.2%; with Nucleic Acid [9] it was 4.4%; in the assay on Nucleic Acid [10], 31.2%; in the assay on Nucleic Acid [11] it was 100%; in the assay on Nucleic Acid [12], 1.7%. For the same compound, the Cleavage is 31.2% in the assay on Nucleic Acid [13], 97.6% in the assay on Nucleic Acid [14], 98.6% with Nucleic Acid [15] and 70.7% in the assay on Nucleic Acid [16].
For the compound `O=C(O)c1ccc(P(c2ccccc2)c2ccccc2)cc1`, the Cleavage in the assay with Nucleic Acid [17] was found to be 92.9%; in the assay on Nucleic Acid [18] it was 88.6%.
With `O=C(O)c1ccccc1P(c1ccccc1)c1ccccc1`, the Cleavage in the assay with Nucleic Acid [19] was found to be 69.1%; in the assay with Nucleic Acid [20], 43.7%.
With `NCCS`, the Cleavage stood at 86.8% in the assay with Nucleic Acid [21] and 56.1% with Nucleic Acid [22].
Take `O=S(=O)(O)c1ccc(P(c2ccc(S(=O)(=O)O)cc2)c2ccc(S(=O)(=O)O)cc2)cc1`: the Cleavage in the assay on Nucleic Acid [23] came to 34.6%; with Nucleic Acid [24], 91.1%; with Nucleic Acid [25], 97.6%; in the assay on Nucleic Acid [26] it was 9%; in the assay with Nucleic Acid [27], 88.1%; in the assay on Nucleic Acid [28], 21%. In addition, the Cleavage with Nucleic Acid [29] was found to be 95.2%; with Nucleic Acid [30], 3.7%.
For the compound `NC(CS)C(=O)O` (stereo not drawn), the Cleavage in the assay with Nucleic Acid [31] turned out to be 16.2%; in the assay on Nucleic Acid [32] it was 28.4%.
Turning to `OCC(S)C(S)CO` (stereo not drawn), the values for the Cleavage in the assay with Nucleic Acid [33] and with Nucleic Acid [34] were 77.2% and 7.6%, respectively.
Consider `CN(C)c1ccc(P(c2ccccc2)c2ccccc2)cc1`, for which the Cleavage in the assay with Nucleic Acid [35] amounted to 23%; with Nucleic Acid [36], 19.5%.
`O=C(O)CCS`: the Cleavage in the assay on Nucleic Acid [37] was 52.3%; in the assay on Nucleic Acid [38] it was 78.9%.
